Each block holds one compound with its values, some of them ahead of it.
Columns and labels:
[1] = Physical form characterization (XRPD) after DVS exposure to 80% RH
[2] = Dynamic Vapor Sorption (DVS) isotherm, 0-80-0% RH cycle; assay type: physicochemical; settings: for Change In Mass (%) Desorption / Change In Mass (%) Hysteresis: 0-80-0% RH cycle, Cycle 1
[3] = Dynamic Vapor Sorption (DVS) isotherm, 0-90-0% RH cycle, two cycles; assay type: physicochemical
[4] = Physical form characterization (XRPD, DSC, TGA) after DVS exposure to 90% RH; assay type: physicochemical

stability ([1]; general statement): good stability | hygroscopicity ([2]; general statement): non-hygroscopicity
Compound: CN(C)C(=O)c1cc2cnc(Nc3ccc(N4CCNCC4)cn3)nc2n1C1CCCC1.O=C(O)CCC(=O)O [non-hydrate form, succinate salt of 7-Cyclopentyl-2-(5-piperazin-1-yl-pyridin-2-ylamino)-7H-pyrrolo[2,3-d]pyrimidine-6-carboxylic acid dimethylamide]

moisture absorbed ([3]; at 90% RH in each cycle (0 to 90 to 0% RH)): up to 2% | hygroscopic behavior ([3]; at high humidity conditions (90% RH)): slight hygroscopic behavior | physical form upon exposure to 80% RH ([1]; XRPD after DVS 0-80-0% RH): stability of the physical form | converted from the non-hydrate form to hydrate form ([1]; at 80% RH): about 0.52% | Change In Mass (%) Desorption ([2]; target RH 0.0%): 0.0434% | Change In Mass (%) Desorption ([2]; target RH 10.0%): 0.2958% | Change In Mass (%) Hysteresis ([2]; target RH 10.0%): 0.0871% | Change In Mass (%) Desorption ([2]; target RH 20.0%): 0.3436% | Change In Mass (%) Hysteresis ([2]; target RH 20.0%): 0.0708% | Change In Mass (%) Desorption ([2]; target RH 30.0%): 0.3806% | Change In Mass (%) Desorption ([2]; target RH 40.0%): 0.4037% | Change In Mass (%) Hysteresis ([2]; target RH 40.0%): 0.0133% | Change In Mass (%) Desorption ([2]; target RH 50.0%): 0.4311% | Change In Mass (%) Hysteresis ([2]; target RH 50.0%): 0.0074% | Change In Mass (%) Desorption ([2]; target RH 60.0%): 0.4614% | Change In Mass (%) Hysteresis ([2]; target RH 60.0%): 0.0140% | Change In Mass (%) Desorption ([2]; target RH 70.0%): 0.4952% | Change In Mass (%) Hysteresis ([2]; target RH 70.0%): 0.0159% | Change In Mass (%) Desorption ([2]; target RH 80.0%): 0.5200% | moisture absorbed ([2]; at 80% RH (0 to 80 to 0% RH)): up to 0.5% | hygroscopic behavior ([2]; printed 'at 80° C.' (0 to 80 to 0% RH cycle)): nearly non-hygroscopic behavior | physical form upon exposure to 90% RH ([4]; XRPD, DSC, TGA after DVS 0-90-0% RH): change in physical form | weight loss at endothermic transition ([4]; around 100° C., after exposure to 90% RH): 3% | converted from the non-hydrate form to hydrate form ([4]; at 90% RH): about 7.35%
Compound: CN(C)C(=O)c1cc2cnc(Nc3ccc(N4CCNCC4)cn3)nc2n1C1CCCC1.O=C(O)CCC(=O)O [Compound of Formula (II), 7-Cyclopentyl-N,N-dimethyl-2-(5-(piperazin-1-yl)pyridin-2-ylamino)-7H-pyrrolo[2,3-d]pyrimidine-6-carboxamide succinate]

Source: patent publication US20120115878A1, “SALT(S) OF 7-CYCLOPENTYL-2-(5-PIPERAZIN-1-YL-PYRIDIN-2-YLAMINO)-7H-PYRROLO[2,3-D]PYRIMIDINE-6-CARBOXYLIC ACID DIMETHYLAMIDE AND PROCESSES OF MAKING THEREOF” (priority 2010, published 2012)
